Some test systems named below: HOP-92; COLO 205; HT-29; NCI-H460; HCT-15; NCI-H226; RXF 393; SF-295; HOP-62; RPMI-8226; TK-10; UO-31; SK-MEL-5; CCRF-CEM; U-251; M14; OVCAR-5; IGROV-1; SN12C; A498.
Holding throughout (test): inhibition of tumour cell growth, NCI panel, 48 h

Structures are written as SMILES.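 Assay format: 96-well plates, 48-hour exposure. Here, GI50 denotes the concentration required for 50% inhibition of growth.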 Activity calls are given as the source filed them. No stated cut-off is given here; in the data, active = GI50 up to about 1.1 µM and inactive = higher.

Regarding `O=C(O)C1CC2C=CCC(C2)C1` (stereo unspecified), the GI50 is > 100 µM (inactive) in the assay with HOP-92; > 100 µM (inactive) with COLO 205; > 100 µM (inactive) with HT-29; > 100 µM (inactive) in the assay on NCI-H460; more than 100 µM in the assay on HCT-15; > 100 µM (inactive) in the assay with NCI-H226. Further, the GI50 in the assay on RXF 393, with SF-295, in the assay with HOP-62, with RPMI-8226, in the assay with TK-10 and with UO-31 was > 100 µM (inactive) throughout. Further, the GI50 with SK-MEL-5, with CCRF-CEM, in the assay on U-251, in the assay on M14, with OVCAR-5 and in the assay on IGROV-1 was > 100 µM (inactive) in each case.
As to `Nc1ccc(S(=O)(=O)c2ccc(NCN3C(=O)NC(=O)C(=O)C3=O)cc2)cc1` [ALLANTODAPSONE], the GI50 was > 100 µM (inactive) in the assay with HOP-92; > 100 µM (inactive) in the assay with HT-29; > 100 µM (inactive) with NCI-H460; > 100 µM (inactive) in the assay on SN12C; more than 100 µM in the assay with HCT-15; > 100 µM (inactive) in the assay with NCI-H226. For the same compound, the GI50 in the assay with RXF 393, in the assay with A498, in the assay on SF-295, in the assay on HOP-62, with TK-10 and in the assay with UO-31 was > 100 µM (inactive) in each case. Moreover, the GI50 in the assay with SK-MEL-5 was > 100 µM (inactive); in the assay on CCRF-CEM it was 95.7 µM (inactive); with U-251, > 100 µM (inactive); in the assay on M14, > 100 µM (inactive); in the assay with OVCAR-5 it was > 100 µM (inactive); in the assay with IGROV-1, > 100 µM (inactive).
On to `CC[n+]1c(-c2ccccc2)c2cc(N)ccc2c2ccc(N)cc21` [HOMIDIUM BROMIDE], for which the GI50 was 2.24 µM (inactive) in the assay on HOP-92; 1.68 µM (inactive) in the assay on COLO 205; 3.67 µM (inactive) in the assay on HT-29; 5.06 µM (inactive) in the assay with NCI-H460; 3.24 µM (inactive) in the assay on SN12C; 55.5 µM with HCT-15. Also, the GI50 in the assay on RXF 393 was 5.68 µM (inactive); in the assay with SF-295, 2.82 µM (inactive); in the assay with TK-10, 8.36 µM (inactive); with SK-MEL-5 it was 1.2 µM (inactive); in the assay on U-251, 4.38 µM (inactive); in the assay on M14, 13.6 µM (inactive). Moreover, the GI50 with OVCAR-5 is 15.4 µM (inactive).
Take `CSc1nc2c(nc(N)n2C2OCC(O)C(O)C2O)c(=O)[nH]1` (stereo unspecified): the GI50 in the assay with HOP-92, in the assay on COLO 205, with HT-29, in the assay with NCI-H460, in the assay with SN12C and in the assay with NCI-H226 was > 100 µM (inactive) in each case. Besides, the GI50 in the assay on RXF 393, in the assay with A498, in the assay on SF-295, with HOP-62, in the assay on TK-10 and with UO-31 was > 100 µM (inactive) in each case. In addition, the GI50 in the assay on SK-MEL-5, with CCRF-CEM, in the assay on U-251, with M14 and in the assay on IGROV-1 was > 100 µM (inactive) throughout.
Consider `C1=CCN(c2ccccc2)CC1`, for which the GI50 is 21.2 µM (inactive) in the assay on HOP-92; 34.5 µM (inactive) in the assay with COLO 205; 23.6 µM (inactive) in the assay with HT-29; > 100 µM (inactive) in the assay on NCI-H460; 26.3 µM (inactive) in the assay with SN12C; 14.8 µM with HCT-15. Moreover, the GI50 in the assay on RXF 393 was 12.2 µM (inactive); in the assay with A498 it was > 100 µM (inactive); in the assay on SF-295, > 100 µM (inactive); in the assay with RPMI-8226, 2.48 µM (inactive); with TK-10, 40 µM (inactive); in the assay on UO-31, > 100 µM (inactive). The GI50 in the assay with SK-MEL-5 is 62.7 µM (inactive); in the assay on CCRF-CEM it was 6.38 µM (inactive); in the assay on U-251, > 100 µM (inactive); in the assay on M14 it was 19.9 µM (inactive); with OVCAR-5, > 100 µM (inactive); in the assay on IGROV-1, 29.9 µM (inactive).
With `CC(C)OP(=O)(OC(C)C)/C(F)=N/Nc1ccc([N+](=O)[O-])cc1`, the GI50 in the assay with HOP-92 is > 100 µM (inactive); with COLO 205, > 100 µM (inactive); in the assay with HT-29, > 100 µM (inactive); in the assay on NCI-H460 it was > 100 µM (inactive); in the assay with SN12C, > 100 µM (inactive); in the assay with HCT-15, more than 100 µM. In addition, the GI50 with A498, with SF-295, with HOP-62, in the assay with RPMI-8226, with TK-10 and in the assay on UO-31 was > 100 µM (inactive) in each case. In addition, the GI50 in the assay on SK-MEL-5, in the assay with CCRF-CEM, in the assay with U-251, in the assay on M14, with OVCAR-5 and in the assay on IGROV-1 was > 100 µM (inactive) each time.
On to `COc1ccc(C[C@H]2COC(=O)[C@@H]2Cc2cccc(Br)c2)cc1OC`, for which the GI50 was 12.1 µM (inactive) in the assay with HOP-92; 14 µM (inactive) in the assay with COLO 205; 21.8 µM (inactive) with HT-29; 26.2 µM (inactive) with NCI-H460; 27.5 µM (inactive) in the assay on SN12C; 29.7 µM in the assay with HCT-15. Besides, the GI50 in the assay with NCI-H226 was 29.9 µM (inactive); with RXF 393 it was 23.6 µM (inactive); in the assay with SF-295, 32.7 µM (inactive); with HOP-62, 31.4 µM (inactive); in the assay on RPMI-8226, 17.8 µM (inactive); in the assay with TK-10, 30.4 µM (inactive). Besides, the GI50 was 22.9 µM (inactive) in the assay with UO-31; 15.7 µM (inactive) in the assay with SK-MEL-5; 5.11 µM (inactive) with CCRF-CEM; 26.4 µM (inactive) in the assay on U-251; 14.4 µM (inactive) with M14; 33.1 µM (inactive) in the assay on OVCAR-5. For the same compound, the GI50 in the assay on IGROV-1 was 31.6 µM (inactive).
Take `O=C(Nc1nccs1)c1c(O)nc2sccn2c1=O`: the GI50 with COLO 205 was > 10 µM (inactive); with HT-29, > 10 µM (inactive); in the assay on NCI-H460, > 10 µM (inactive); with SN12C, > 10 µM (inactive); in the assay on HCT-15, more than 10 µM; in the assay on NCI-H226, > 10 µM (inactive). Also, the GI50 in the assay with RXF 393, with A498, in the assay on SF-295, in the assay with HOP-62, with RPMI-8226 and with TK-10 was > 10 µM (inactive) in each case. Further, the GI50 in the assay with UO-31 is 6.55 µM (inactive); in the assay with SK-MEL-5 it was > 10 µM (inactive); with CCRF-CEM, > 10 µM (inactive); with U-251, > 10 µM (inactive); in the assay on M14 it was > 10 µM (inactive); in the assay on OVCAR-5 it was > 10 µM (inactive). In addition, the GI50 in the assay with IGROV-1 was > 10 µM (inactive).
Take `O=C(C1=C(C(=O)c2ccccc2)SC2(S1)C(C(=O)c1ccccc1)=C(C(=O)c1ccccc1)Sc1c2ssc1=O)c1ccccc1`: the GI50 with HOP-92 is > 100 µM (inactive); in the assay on COLO 205 it was > 100 µM (inactive); with HT-29, > 100 µM (inactive); in the assay with NCI-H460, 31.5 µM (inactive); in the assay with SN12C, 26.7 µM (inactive); in the assay on HCT-15, 64.9 µM. For the same compound, the GI50 was 27 µM (inactive) in the assay on NCI-H226; 34.8 µM (inactive) in the assay on RXF 393; 17.2 µM (inactive) with A498; 33.5 µM (inactive) with SF-295; > 100 µM (inactive) in the assay with HOP-62; 70.1 µM (inactive) in the assay with TK-10. For the same compound, the GI50 with UO-31 is 22.4 µM (inactive); in the assay on SK-MEL-5 it was 43.6 µM (inactive); with CCRF-CEM it was 8.34 µM (inactive); in the assay with U-251 it was 32.6 µM (inactive); in the assay with M14 it was 37.3 µM (inactive); in the assay with OVCAR-5, 26.8 µM (inactive). Moreover, the GI50 in the assay on IGROV-1 was > 100 µM (inactive).
As for `CC(C)=CCC/C(C)=C/CC/C(C)=C/C(O)c1ccccc1` (stereo unspecified), the GI50 in the assay on COLO 205 was 18.5 µM (inactive); with HT-29, 18.4 µM (inactive); in the assay on NCI-H460 it was 19.5 µM (inactive); with SN12C it was 19.1 µM (inactive); in the assay with HCT-15 it was 18.8 µM; with NCI-H226, 30.1 µM (inactive). For the same compound, the GI50 in the assay with A498 was 19.5 µM (inactive); in the assay on SF-295, 18.1 µM (inactive); in the assay with HOP-62 it was 19.1 µM (inactive); in the assay with RPMI-8226 it was 18.7 µM (inactive); in the assay with TK-10, 29.1 µM (inactive); in the assay on UO-31, 21 µM (inactive). Further, the GI50 is 16.6 µM (inactive) in the assay with SK-MEL-5; 23.1 µM (inactive) with CCRF-CEM; 18.2 µM (inactive) with U-251; 18.3 µM (inactive) with M14; 18.3 µM (inactive) in the assay on OVCAR-5; 19.8 µM (inactive) in the assay on IGROV-1.
Consider `CC1SC2=NC3=C(c4ccccc4C3=O)C(c3ccccc3Cl)N2C1=O` (stereo unspecified), for which the GI50 in the assay on HOP-92 is 78.2 µM (inactive); in the assay with COLO 205, > 100 µM (inactive); with HT-29, > 100 µM (inactive); in the assay on NCI-H460, > 100 µM (inactive); in the assay on SN12C, > 100 µM (inactive); in the assay on HCT-15, more than 100 µM. Moreover, the GI50 in the assay on NCI-H226 is > 100 µM (inactive); in the assay with A498, > 100 µM (inactive); in the assay on SF-295, > 100 µM (inactive); in the assay on HOP-62, > 100 µM (inactive); in the assay on RPMI-8226 it was 58.5 µM (inactive); with TK-10 it was > 100 µM (inactive). The GI50 in the assay on UO-31 was > 100 µM (inactive); with SK-MEL-5 it was > 100 µM (inactive); in the assay on CCRF-CEM, 70.3 µM (inactive); in the assay with U-251 it was > 100 µM (inactive); in the assay with M14, > 100 µM (inactive); with OVCAR-5, > 100 µM (inactive). For the same compound, the GI50 in the assay with IGROV-1 is > 100 µM (inactive).

The values are drawn from ChEMBL document CHEMBL1201862, “PubChem BioAssay data set” (2004).
